Assay results: ChEMBL document CHEMBL3351264, “Piperazinyl-oxadiazoles as selective sphingosine-1-phosphate receptor agonists” (Bioorg Med Chem Lett, 2014)
pEC50: −log10 of the molar value.

How the values were obtained:
[1] = target: Sphingosine 1-phosphate receptor 1 (Homo sapiens, UniProt P21453); experiment: Agonist activity at human S1P1 receptor expressed in human EDG1-bla U2OS cells after 18 hrs by beta-arrestin recruitment assay; assay type: cell-based
[2] = target: T1, Sphingosine 1-phosphate receptor 3 (Homo sapiens, UniProt Q99500); experiment: Agonist activity at human S1P3 receptor expressed in human EDG3-bla U2OS cells after 18 hrs by beta-arrestin recruitment assay; assay type: cell-based
T1 sequence (Q99500 whole entry): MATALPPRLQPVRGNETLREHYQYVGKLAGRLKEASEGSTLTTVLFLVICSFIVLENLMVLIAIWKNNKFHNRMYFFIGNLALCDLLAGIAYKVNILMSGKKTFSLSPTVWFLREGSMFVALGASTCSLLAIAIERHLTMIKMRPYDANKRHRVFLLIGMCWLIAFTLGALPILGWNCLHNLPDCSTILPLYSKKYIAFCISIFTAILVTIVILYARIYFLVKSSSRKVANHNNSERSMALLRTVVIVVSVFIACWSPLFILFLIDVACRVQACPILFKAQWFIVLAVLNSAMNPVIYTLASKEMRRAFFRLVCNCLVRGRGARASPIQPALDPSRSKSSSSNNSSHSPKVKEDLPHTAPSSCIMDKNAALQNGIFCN

[3] = target: T1, Sphingosine 1-phosphate receptor 3; experiment: Partial agonist activity at human S1P3 receptor expressed in human EDG3-bla U2OS cells after 18 hrs by beta-arrestin recruitment assay; assay type: cell-based
[4] = system: Plasma; experiment: Drug metabolism in rat plasma assessed as 2-amino-3-(5-chloro-4-(3-(4-(cyclopentanecarbonyl)piperazin-1-yl)-1,2,4-oxadiazol-5-yl)-2-fluorophenoxy)propyl dihydrogen phosphate formation at 3 mg/kg, po; assay type: ADME, organism-based; set-up: dose 3 mg/kg, route oral; conditions: in vivo
[5] = system: Rattus norvegicus; experiment: Toxicity in Lewis rat assessed as reduction in circulating lymphocyte count at 3 mg/kg, po after 4 hrs; assay type: organism-based; set-up: dose 3 mg/kg, route oral; conditions: in vivo
[6] = species: Homo sapiens; experiment: Selectivity ratio of EC50 for human S1P3 receptor to EC50 for human S1P1 receptor
[7] = system: Plasma; experiment: Drug level in rat plasma treated with 3 mg/kg, po; assay type: ADME, organism-based; set-up: dose 3 mg/kg, route oral; conditions: in vivo

Sphingosine 1-phosphate receptor 1, sequence (P21453 whole entry): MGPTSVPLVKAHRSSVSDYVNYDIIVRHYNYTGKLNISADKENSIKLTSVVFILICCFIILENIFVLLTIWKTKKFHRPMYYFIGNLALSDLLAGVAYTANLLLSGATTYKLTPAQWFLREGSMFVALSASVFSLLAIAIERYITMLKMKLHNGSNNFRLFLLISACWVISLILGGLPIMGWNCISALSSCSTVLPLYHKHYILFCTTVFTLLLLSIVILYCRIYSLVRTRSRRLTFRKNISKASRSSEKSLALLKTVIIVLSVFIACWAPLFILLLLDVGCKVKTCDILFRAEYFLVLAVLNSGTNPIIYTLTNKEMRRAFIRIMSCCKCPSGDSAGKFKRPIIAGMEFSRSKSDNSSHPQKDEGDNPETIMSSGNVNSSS

Row | pEC50 [1] | pEC50 [2] | SMILES | also measured
1 | 8.92 | < 5.00 | N[C@@H](CO)COc1cc(Cl)c(-c2nc(N3CCN(C(=O)C4CCCCC4)CC3)no2)cc1F | 
2 | 8.51 | 6.35 | CC1(C)CC(C(=O)N2CCN(c3noc(-c4cc(F)c(OC[C@@H](N)CO)cc4Cl)n3)CC2)C1 | %max [3]: 63%
3 | 5.96 | < 5.00 | CC1(C)CC(C(=O)N2CCN(c3noc(-c4cc(F)c(OC[C@@H](O)CO)cc4Cl)n3)CC2)C1 | 
4 | 7.77 | < 5.00 | N[C@@H](CO)COc1cc(Cl)c(-c2nc(N3CCN(C(=O)C4CCC4)CC3)no2)cc1F | 
5 | 6.62 | < 5.00 | O=C(O)CCOc1cc(Cl)c(-c2nc(N3CCN(C(=O)C4CCCC4)CC3)no2)cc1F | 
6 | 5.57 | < 5.00 | CC1(C)CC(C(=O)N2CCN(c3noc(-c4cc(F)c(OCCC(=O)O)cc4Cl)n3)CC2)C1 | 
7 | 5.89 | < 5.00 | N[C@H](CO)COc1cc(Cl)c(-c2nc(N3CCN(C(=O)C4CCC4)CC3)no2)cc1F | 
8 | < 5.00 | < 5.00 | CC1(C)CC(C(=O)N2CCN(c3noc(-c4cc(F)c(OCC(=O)O)cc4Cl)n3)CC2)C1 | 
9 | < 5.00 | < 5.00 | CC1(C)CC(C(=O)N2CCN(c3noc(-c4cc(F)c(OC[C@@H]5COC(=O)N5)cc4Cl)n3)CC2)C1 | 
10 | 6.04 | < 5.00 | CC1(C)CC(C(=O)N2CCN(c3noc(-c4cc(F)c(OCCO)cc4Cl)n3)CC2)C1 | 
11 | 5.96 | < 5.00 | C[C@H](O)COc1cc(Cl)c(-c2nc(N3CCN(C(=O)C4CC(C)(C)C4)CC3)no2)cc1F | 
12 | 8.77 | < 5.00 | N[C@@H](CO)COc1cc(Cl)c(-c2nc(N3CCN(C(=O)C4CCCC4)CC3)no2)cc1F | Drug metabolism [4]: metabolite_detected; Activity [5]: Toxic
13 | 9.30 | 6.03 | N[C@H](COc1cc(Cl)c(-c2nc(N3CCN(C(=O)C4CCCC4)CC3)no2)cc1F)COP(=O)(O)O | Ratio EC50 [6]: 2000; Drug metabolism [7]: metabolite_detected
14 | 5.96 | < 5.00 | CC1(C)CC(C(=O)N2CCN(c3noc(-c4cc(F)c(OCCCO)cc4Cl)n3)CC2)C1 | 
15 | 6.38 | < 5.00 | N[C@H](CO)COc1cc(Cl)c(-c2nc(N3CCN(C(=O)C4CCCC4)CC3)no2)cc1F | 
16 | 7.34 |  | CCC(C)(C)C(=O)N1CCN(c2noc(-c3cc(F)c(OCC(N)CO)cc3Cl)n2)CC1 (configuration not stated) | 
17 | 5.68 | < 5.00 | O=C(O)C1CN(Cc2cc(Cl)c(-c3nc(N4CCN(C(=O)C5CCCC5)CC4)no3)cc2F)C1 | 
18 | 5.92 | < 5.00 | CC1(C)CC(C(=O)N2CCN(c3noc(-c4cc(F)c(OC[C@H](O)CO)cc4Cl)n3)CC2)C1 | 

More lines, now with the values behind:

Row | SMILES | pEC50 [1] | pEC50 [2] | also measured
19 | N[C@@H](CO)COc1c(Cl)cc(-c2nc(N3CCN(C(=O)C4CCCC4)CC3)no2)cc1Cl | 5.80 | < 5.00 | 
20 | N[C@@H](CO)COc1cc(Cl)c(-c2noc(N3CCN(C(=O)c4cccc(Cl)c4)CC3)n2)cc1F | 7.92 | < 5.00 | 
21 | N[C@@H](CO)COc1cc(Cl)c(-c2nc(N3CCN(C(=O)c4ccccn4)CC3)no2)cc1F | 7.04 | < 5.00 | 
22 | CCc1cccnc1C(=O)N1CCN(c2noc(-c3cc(F)c(OC[C@@H](N)CO)cc3Cl)n2)CC1 | 8.28 | < 5.00 | 
23 | N[C@@H](CO)COc1cc(Cl)c(-c2nc(N3CCN(C(=O)c4ccccc4)CC3)no2)cc1F | 8.19 | < 5.00 | 
24 | CC(C)(C(=O)N1CCN(c2noc(-c3cc(F)c(OC[C@@H](N)CO)cc3Cl)n2)CC1)C(F)(F)F | 8.01 | 5.33 | %max [3]: 44%
25 | N[C@@H](CO)COc1c(Cl)cc(-c2nc(N3CCN(C(=O)C4CCCCC4)CC3)no2)cc1Cl | < 5.00 | < 5.00 | 
26 | N[C@@H](CO)COc1c(Cl)cc(-c2nc(N3CCN(C(=O)c4cccc(Cl)c4)CC3)no2)cc1Cl | < 5.27 | < 5.00 | 
27 | N[C@@H](CO)COc1cc(Cl)c(-c2nnc(N3CCN(C(=O)C4CCCC4)CC3)s2)cc1F | 9.30 | 6.39 | %max [3]: 45%
28 | CCC(C)(C)C(=O)N1CCN(c2noc(-c3ccccc3OC)n2)CC1 | 5.44 |  | 
29 | N[C@H](CO)COc1cc(Cl)c(-c2nc(N3CCN(C(=O)c4cccc(Cl)c4)CC3)no2)cc1F | 5.62 | < 5.00 | 
30 | N[C@@H](CO)COc1cc(Cl)c(-c2noc(N3CCN(C(=O)C4CCCC4)CC3)n2)cc1F | 7.26 | < 5.00 | 
31 | N[C@@H](CO)COc1cc(Cl)c(-c2nnc(N3CCN(C(=O)c4cccc(Cl)c4)CC3)s2)cc1F | 8.64 | 6.42 | %max [3]: 48%
32 | N[C@@H](CO)COc1cc(Cl)c(-c2nc(N3CCN(C(=O)c4cccc(Cl)c4)CC3)no2)cc1F | 8.39 | < 5.00 | 
33 | N[C@@H](CO)COc1cc(Cl)c(-c2noc(C3CCN(C(=O)C4CCCC4)CC3)n2)cc1F | 7.35 | < 5.00 | 
